Data published in patent US12599560B2, “Lipids and lipid nanoparticle formulations” (Longuide Biopharma Corporation, priority 2023, dated 2026).

Legend:
A549 cells [1] = test: Cytotoxicity assay (CCK-8), A549; assay type: cell-based
Protocol: (§1) A549 cells were digested and collected the day before treatment and the cell concentration was adjusted to 2*10^5 cells/mL, 200 μL cell culture medium with a concentration of 2*10^5 cells/mL was added to the 96-well plate, resulting in approximately 4*10^4 cells per well in the 96-well plate. Digested and collected DC2.4 cells and adjusted the cell concentration to 1*10^5 cells/mL, added 200 μL cell culture medium with a concentration of 1*10^5 cells/mL to the 96-well plate, so that the number of cells per well in the 96-well plate is approximately 2*10^4. The cells were incubated in a cell culture incubator (Esco Micro Pte Ltd, Singapore, CLM-170B-8-NF) at 37° C. 5% CO2 for 24 h.
(§2) On the day of cell treatment, the medium (Thermo Fisher Scientific) was aspirated from the 96-well plate, 200 μL of PBS was added to each well to rinse the cells and then the PBS (Thermo Fisher Scientific) was removed, and 180 μL of opti-MEM (Thermo Fisher Scientific) was added to each well of the treatment group.
(§3) Different volumes of the preparation were taken and diluted by adding the buffer used for the preparation or the buffer used for dialysis, and four dosing concentrations were prepared for each preparation, and 20 μL of the diluted nanopreparation was added to each well of a 96-well plate (3 replicate wells for each concentration), and the dosing concentrations of the preparation were about 50 ng mRNA/well, 100 ng mRNA/well, 200 ng mRNA/well, and 300 ng mRNA/well, respectively.
(§4) The 96-well cell culture plate was placed in a cell culture incubator and incubated at 37° C. 5% CO2 for 4 h. The medium was sucked up, and 200 μL of DMEM complete medium was added to each well and incubated for 20 h for detection.
(§5) Diluted CCK-8 detection reagent (Shanghai Beyotime Biotechnology Co., Ltd.) masterbatch (900 μL complete medium+100 μL CCK-8 detection reagent) with DMEM complete medium at 9:1 to prepare CCK-8 working solution.
(§6) Take out the 96-well cell culture plate and removed the supernatant. Before detection, the 96-well plate was added with 100 μL CCK-8 working solution, incubated in the cell culture incubator at 37° C. 5% CO2 for 2 h, and analyzed by plate reader. The cell viability was calculated to reflect the cytotoxicity.

[2] = Particle size and PDI by dynamic light scattering; assay type: physicochemical; settings: Table 2; for Particle size (nm): LNP formulation with mRNA; for PDI: polydispersity value
In short: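 Lipid nanoparticle solution (about 0.04 mg/mL mRNA) diluted in ultrapure water and particle size measured by dynamic light scattering on a Malvern instrument. Sample then further diluted with water for potential measurement.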

A549 cells [3] = test: Cell transfection assay (D-Luciferin), A549; assay type: cell-based
Protocol: as §1, §2, §3, §4
D-Luciferin (Biohub International Trade Co., Ltd.) stock solution (9900 μL of complete medium+100 μL of 25 mg/mL of D-Luciferin stock solution) was diluted with DMEM complete medium at 99:1 to make a working solution at the concentration of 250 μg/mL (25 μg per well).
The 96-well cell culture plate was taken out and the supernatant was removed. Before imaging, the 96-well plate was added with 100 μL of D-Luciferin working solution, incubated at 37° C. for 5 min, and imaged and analyzed by the plate reader.

[4] = Nucleic acid encapsulation efficiency by fluorescence (RiboGreen); assay type: physicochemical
Protocol: The nucleic acid encapsulation rate of the nucleic acids lipid nanoparticle formulations obtained in steps 6, 7, and 8 can be determined by fluorescence methods, such as using the Quant-iT™ RiboGreen RNA Quantification Kit (Thermo Fisher Scientific). Take the RiboGreen RNA Quantification Kit as an example: Configure the low-range working solution and mRNA standard solution according to the instructions. Take 3 μL of the nucleic acid lipid nanoparticle solution obtained in step 6, add 297 μL of the Tris-EDTA buffer (TE buffer) provided with the kit, mix well, and then suck up 100 μL of it into the black-bottomed ninety-six-well plate, and then add 100 μL of the RiboGreen low-range detection working solution. Add 100 μL of different concentrations of mRNA standard solution into the black bottom 96-well plate, and add 100 μL of RiboGreen low-range detection working solution. After gently blowing and mixing well, incubate for 5 minutes away from light, and then immediately detect and record the fluorescence signal intensity using a multifunctional enzyme labeling instrument (BMG LABTECH, FLUOstar Omega). The free mRNA content not encapsulated by the lipid nanoparticles was calculated by standard curve fitting and calculation, and then divided by the total amount of mRNA in the wells detected to find the nucleic acid encapsulation rate of this nucleic acid lipid nanoparticle preparation.

[5] = Stability of LNP formulations after storage; assay type: physicochemical; settings: both formulations; physical stability and in vivo delivery efficiency
Protocol: Excipients and/or cryoprotectants, such as sucrose, can be added to the nucleic acid lipid nanoparticle preparation obtained in step 6 or to the nucleic acid lipid nanoparticle preparation obtained after dialysis in step 7. As an example, 40% sucrose (Aladdin Reagent (Shanghai) Co., Ltd.) was added to the nucleic acid lipid nanoparticle preparation with the volume ratio of 3:1, which is mixed homogeneously to obtain nucleic acid lipid nanoparticle preparation containing 10% sucrose, and further aliquoted into ribozyme-free centrifuge tubes and stored in an ice box, 4° C., −20° C., and/or −80° C. refrigerator for later use. Physicochemical property measurement and in vivo effect validation of the lipid nanoparticles were performed after thawing and returning to room temperature after storage for the indicated time.

DC2.4 cells = test: Cytotoxicity assay (CCK-8), DC2.4; assay type: cell-based; settings: formulation No. 2
Protocol: as §1, §2, §3, §4, §5, §6

[6] = molar ratio 1.50:11.50:38.50:48.50, N/P 24
[7] = molar ratio 1.50:20.00:33.50:45.00, N/P 40
[8] = molar ratio 1.71:12.98:45.31:40.00, N/P 40

In the case of `CCCCCCCCCCCCOC(=O)C(O)CN(CCCN1CCN(CCCN(CC(O)C(=O)OCCCCCCCCCCCC)CC(O)C(=O)OCCCCCCCCCCCC)CC1)CC(O)C(=O)OCCCCCCCCCCCC` (centres unmarked) [Compound L0191], the “cellular toxicity (in words)” value (A549 cells [1]; all tested formulations, even at high doses, e.g., 300 ng/well) was “low to no cellular toxicity”, the “A549 cellular tox (% cells alive)” value (A549 cells [1]; formulation No. 1, 50 ng/well) was 103.42% and the “A549 cellular tox (% cells alive)” value (A549 cells [1]; formulation No. 1, 100 ng/well) was 105.39%. The “A549 cellular tox (% cells alive)” value (A549 cells [1]; formulation No. 1, 200 ng/well) was 103.90%, the “A549 cellular tox (% cells alive)” value (A549 cells [1]; formulation No. 1, 300 ng/well) was 103.50% and the “A549 cellular tox (% cells alive)” value (A549 cells [1]; formulation No. 2, 50 ng/well) was 103.82%. For the same compound, the “A549 cellular tox (% cells alive)” value (A549 cells [1]; formulation No. 2, 100 ng/well) was 105.86%, the “A549 cellular tox (% cells alive)” value (A549 cells [1]; formulation No. 2, 200 ng/well) was 109.06% and the “A549 cellular tox (% cells alive)” value (A549 cells [1]; formulation No. 2, 300 ng/well) was 104.35%. For the same compound, the “Particle size (nm)” value [2, 6] was 75.33 ± 0.78 nm, the “Particle size (nm)” value [2, 7] was 70.87 ± 0.35 nm and the “Particle size (nm)” value [2, 8] was 92.00 ± 0.39 nm. The PDI [2, 6] was 0.10 ± 0.01, the PDI [2, 7] was 0.17 ± 0.01 and the PDI [2, 8] was 0.15 ± 0.02. The “transfection efficiency (in words)” value (A549 cells [3]; all tested formulations, A549 and DC2.4 cells) was “high”, the “A549 transfection/RLU” value (A549 cells [3]; formulation No. 1 (1.50:20:33.50:45.00), 50 ng/well) was 61522.00 RLU and the “A549 transfection/RLU” value (A549 cells [3]; formulation No. 1, 100 ng/well) was 80557.33 RLU. The “A549 transfection/RLU” value (A549 cells [3]; formulation No. 1, 200 ng/well) was 81404.33 RLU, the “A549 transfection/RLU” value (A549 cells [3]; formulation No. 1, 300 ng/well) was 84806.33 RLU and the “A549 transfection/RLU” value (A549 cells [3]; formulation No. 2 (1.50:11.50:38.50:48.50), 50 ng/well) was 31491.33 RLU. The “A549 transfection/RLU” value (A549 cells [3]; formulation No. 2, 100 ng/well) was 54866.67 RLU, the “A549 transfection/RLU” value (A549 cells [3]; formulation No. 2, 200 ng/well) was 90775.67 RLU and the “A549 transfection/RLU” value (A549 cells [3]; formulation No. 2, 300 ng/well) was 88154.33 RLU. For the same compound, the “encapsulation efficiency (in words)” value ([4]; all tested formulations) was “high”, the encapsulation efficiency ([4]; formulation No. 1, molar ratio 1.50:20:33.50:45.00) was 96.26% and the encapsulation efficiency ([4]; formulation No. 2, molar ratio 1.50:11.50:38.50:48.50) was 97.92%. For the same compound, the “stability after storage under different conditions” value [5] was “excellent stability”, the “DC2.4 cellular tox (% cells alive)” value (DC2.4 cells; 50 ng/well) was 95.97% and the “DC2.4 cellular tox (% cells alive)” value (DC2.4 cells; 100 ng/well) was 87.33%. The “DC2.4 cellular tox (% cells alive)” value (DC2.4 cells; 200 ng/well) was 75.79% and the “DC2.4 cellular tox (% cells alive)” value (DC2.4 cells; 300 ng/well) was 92.20%.
